Oligonucleotides are written 5' to 3', each unit as a sugar letter and its base; * is a phosphorothioate linkage, no mark a phosphodiester; rarer units and linkages stand in square brackets, end groups in braces. Plain capitals give the bases only. d = 2'-deoxy (DNA); {P} = phosphate
Experiments:
[1] = system: E2F1, p53, p53 phosphorylated at serine 15; test: Western blot of E2F1, p53 and phospho-p53 in neonatal fibroblasts; assay type: cell-based, human
Experimental: Cells were plated at a density of 180,000 cells/ml in RPMI 1640 medium supplemented with 3% FBS. Cells were treated with 40 μM of either of the oligonucleotides for 72 hours. Cells were then collected, washed and fixed for 30 minutes in 4% paraformaldehyde and then permeabilized with 0.1% Triton X-100 for 2 minutes. The TUNEL assay was carried out with components and instructions of the In Situ Cell Death Detection Kit using fluorescein-labeled dUTP from Boehringer Mannheim. TUNEL-positive cells were detected by FACS analysis and confocal microscopy. Cellular Uptake of Oligonucleotides For confocal analysis, Jurkat cells were plated on Permanox chamber slides (Lab-Tek, Naperville, Ill.) and treated for 4 hours with fluorescein phosphoramidite (FAM)-labeled oligonucleotides (Research Genetics, Inc., Huntsville, Ala.). Adherent cells were fixed in 4% paraformaldehyde in PBS, stained with propidium iodide (PI) to identify nuclei, mounted with Slowfade reagent (Molecular Probes, Eugene, Oreg.), covered with a coverslip and stored at 4° C. in the dark. Uptake of the oligonucleotides was assessed in 5–10 μm sections with a Carl Zeiss LSM 510 confocal laser microscope. Computer images assign green to the FAM-oligonucleotides, red to PI, and yellow to co-localization of the signals. FACS analysis was performed on Jurkat cells identically treated with the FAM-oligonucleotides for 4 hours, then fixed in 0.5 ml of 4% paraformaldehyde overnight at 4° C. Fluorescence was measured on the FL-1 channel. Western Blot Analysis and Antibodies Western blot analysis was performed as previously described [Eller, M. S., et al., (1996), Proc Natl Acad Sci USA 93, 1087–1092]. Antibody Ab-6 (DO-1 clone, Oncogene Research Products, Cambridge, Mass.) detected p53; antibody KH95 (Santa Cruz Biotechnology, Inc., Santa Cruz, Calif.) detected E2F1; antibody Ab-4 (Oncogene Research products) detected p73. Phospho-p53 (serine 15) was detected using the #9284 polyclonal antibody and phospho-p95/Nbs1 (serine 343) was detected by a phospho-p95/Nbs1-specific polyclonal antibody, both antibodies from Cell Signaling Technology (Beverly, Mass.). p95/Nbs1 antibody (#NB-100-143, Novus Biologicals, Littleton, Colo.) and an actin antibody (I-19, Santa Cruz Biotechnology, Santa Cruz, Calif.) were also used. Modification of p95/Nbs1 Jurkat and SCC12F cells were cultured and treated with the oligonucleotides as described above. After the indicated times, total protein was collected and analyzed by 8% PAGE and western blot using a polyclonal antibody to p95/Nbs1 (#NB-100-143, Novus Biologicals, Littleton, Colo.). Immunoprecipitation and treatment with a serine/threonine phosphatase was performed as described by Lim et al. [Lim, D. S. et al., Nature 404:613–617, 2000]. Transient Transfection and Expression of TRF2^DN The Ad TRF2^DN expression vector was the kind gift of Dr. Titia deLange (Rockefeller University). The control vector, pCMV LUC was the gift of Dr. M. Hedayati, Johns Hopkins University. Cells were plated at a density of 3.5×10^3 cells/cm^2. One day later, the cultures were transfected with 1 μg plasmid DNA/35 mm culture dish, using the Fugene 6 Transfection Reagent (Roche Molecular Biochemicals, Indianapolis, Ind.), following the protocol supplied by the manufacturer. Cells were collected at the indicated times after transfection and p95/Nbs1 was examined by western blot as described. Telomere Length Normal human fibroblasts were cultured for 5 days in the presence of either diluent or 40 μM 11mer-1, -2 or -3. The cells were then collected and the genomic DNA isolated using the DNeasy Tissue Kit (Qiagen, Valencia, Calif.). Telomere length was determined essentially as described by van Steensel and de Lange (van Steensel, B. and T. de Lange. 1997, Nature 385: 740–743) using the Telo TAGGG Telomere Length Assay from Roche Molecular Biochemicals (Indianapolis, Ind.) and the protocol supplied by the manufacturer. […]

[2] = system: pCMV-Luc plasmid in human newborn fibroblasts; test: Repair of singlet oxygen-damaged pCMV-Luc plasmid in fibroblasts; assay type: cell-based; conditions: 100 μM 48 hours
Experimental: The plasmid pCMV-Luc is a non-replicating vector containing a reporter gene, luciferase, under the control of a strong constitutive cytomegalovirus promoter (gift of Dr. Hedayati, Johns Hopkins University). Singlet oxygen-induced DNA damage of the plasmid was generated by irradiating the plasmid with visible light for different time intervals (0 min, 10 min and 20 min), in the presence of the photosensitizer methylene blue. Fibroblasts (human newborn), pretreated for 48 hours with 100 μM pTpT or with diluent alone, were transfected with 0.5 μg of pCMV-Luc using Lipofect Aminem (Promega, Madison, Wis.). After two days, plasmid-encoded luciferase activity was determined in cell extracts (Promega luciferase assay). Pretreatment with pTpT enhanced the repair of singlet oxygen-induced DNA damage after […] by 179% and 228% respectively. FIG. 26 represents luciferase activity as a percent of luciferase activity assayed in fibroblasts transfected with sham irradiated plasmid.

LacZ reporter plasmid = test: UV-induced mutation frequency in LacZ transgenic mice; assay type: in vivo
From the text: Transgenic mice carrying multiple genomic copies of a LacZ reporter plasmid were used. One hundred μM pTpT in polypropyleneglycol was applied to one ear and vehicle alone to the other ear, daily for four days. On the fifth day, both ears were exposed to 100 mJ/cm^2 UVB light. This procedure was repeated weekly for 3, 5 or 7 weeks (3 mice/group). One week after the final irradiation, LacZ plasmids were harvested from the ear epidermis. Using methods well known in the art, the plasmids were recovered from genomic DNA by restriction enzyme digestion and specific binding to the LacI protein. Mutant LacZ plasmids were positively selected by transfection into bacteria and growth on selective medium and the mutation frequency was determined.

| Substance | E2F1 increase peaked after [1] | increase in E2F1 seen as early as [1] | phosphorylated p53 (serine 15) first detected at [1] | increase in E2F1 compared to diluent or 11mer-2 treated controls ([1]; 40 μM, 24 hours, densitometry) | increase in p53 compared to diluent or 11mer-2 treated controls ([1]; 40 μM, 48 hours) | increase in p53 compared to diluent or 11mer-2 treated controls ([1]; 40 μM, 72 hours) | p53 protein phosphorylated at serine 15 ([1]; sustained through at least 48 hours) | enhanced repair of singlet oxygen-induced DNA damage ([2]; 10 mJ/cm^2) | enhanced repair of singlet oxygen-induced DNA damage ([2]; 20 mJ/cm^2) | mutation frequency (LacZ reporter plasmid; 100 μM topical, weekly UVB, after 3 weeks (diluent 293)) | lower mutation frequency than diluent treated skin (LacZ reporter plasmid; after 3, 5, and 7 weeks) | mutation frequency (LacZ reporter plasmid; after 5 weeks (diluent 216)) | mutation frequency (LacZ reporter plasmid; after 7 weeks (diluent 322)) |
| --- | --- | --- | --- | --- | --- | --- | --- | --- | --- | --- | --- | --- | --- |
| pGTTAGGGTTAG (DNA {P}-dGdTdTdAdGdGdGdTdTdAdG) [SEQ ID NO: 5] | 12 to 24 h | 4 h | 4 h | 170–250% | 60–300% | 240–380% | striking and selective increase | – | – | – | – | – | – |
| thymidine dinucleotide [pTpT] | – | – | – | – | – | – | – | 179% | 228% | 200 | 20–30% | 155 | 261 |
